These results are taken from US20080125467A1, “Amino-Containing Compounds Which Inhibit Memapsin 2 Beta-Secretase Activity and Methods of Use Thereof” (priority 2004, published 2008).

The assay deals with T1, memapsin 2 (Cricetulus griseus, UniProt G3IAK4).
T1 construct: endogenous in cells; host or cells: Chinese hamster ovary cells over-expressing human APP695 (London + Swedish)
T1 sequence (G3IAK4 22-501): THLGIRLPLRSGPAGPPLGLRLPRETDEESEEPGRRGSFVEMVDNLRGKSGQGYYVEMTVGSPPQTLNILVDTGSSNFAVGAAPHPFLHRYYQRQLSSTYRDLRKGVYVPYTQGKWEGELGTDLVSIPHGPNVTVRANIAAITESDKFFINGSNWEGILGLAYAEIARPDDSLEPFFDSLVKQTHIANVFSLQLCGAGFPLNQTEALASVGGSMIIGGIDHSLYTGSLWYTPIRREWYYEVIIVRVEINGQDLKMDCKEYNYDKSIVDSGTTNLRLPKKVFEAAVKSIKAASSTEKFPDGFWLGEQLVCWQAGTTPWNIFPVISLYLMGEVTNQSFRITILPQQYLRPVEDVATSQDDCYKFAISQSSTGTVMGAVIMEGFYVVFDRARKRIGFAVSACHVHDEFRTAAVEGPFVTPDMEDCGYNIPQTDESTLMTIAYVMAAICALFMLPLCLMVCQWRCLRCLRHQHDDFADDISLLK
In words: Cellular Aβ IC50 determination (Aβ40 sandwich ELISA). Type of assay: cell-based. The note with it: Chinese hamster ovary cells over-expressing human APP695 with London and Swedish mutations, 24 h. As for the experimental part:
The potency of compounds against memapsin 2 activity was determined in a cellular assay of Aβ production. […] Chinese hamster ovary cells that over-express human APP695 with the London and Swedish mutations were seeded in multi-well plates at 10% confluency. Compounds were dissolved in DMSO to concentrations near 1 mM, and diluted into culture media to a final concentration near 4 μM (final 0.4% DMSO). Compounds were diluted serially and applied to cells in multi-well plates 48 h after seeding. Incubation was continued in 5% CO2 at 37 degrees C. for 24 h. Aliquots were removed and assayed for Aβ40 content using a sandwich ELISA (BioSource International). Amount of Aβ40 over the range of concentration of compounds, relative to control incubations, were fit to a 4-parameter IC50 model.
(In general: ELISA stands for enzyme-linked immunosorbent assay.)
One may read the IC50 as the concentration that inhibits the measured activity by half. In turn, `Cc1csc(COC(=O)NCC(NC(=O)C(C)Cc2nc(C)cs2)C(=O)NC(CC(C)C)C(O)CC(C)C(=O)NC(C(=O)NCC(C)C)C(C)C)n1` (centres unmarked) [(4-methylthiazol-2-yl)methyl 3-(5-hydroxy-8-(1-(isobutylamino)-3-methyl-1-oxobutan-2-ylamino)-2,7-dimethyl-8-oxooctan-4-ylamino)-2-(2-methyl-3-(4-methylthiazol-2-yl)propanamido)-3-oxopropylcarbamate] registered an IC50 of less than 6 µM.
Turning to `CCC(Cc1nc(C)cs1)C(=O)NC(CNC(=O)OC(C)C)C(=O)NC(CC(C)C)C(O)CC(C)C(=O)NC(C(=O)NCC(C)C)C(C)C` (centres unmarked) [isopropyl 3-(5-hydroxy-8-(1-(isobutylamino)-3-methyl-1-oxobutan-2-ylamino)-2,7-dimethyl-8-oxooctan-4-ylamino)-2-(2-((4-methylthiazol-2-yl)methyl)butanamido)-3-oxopropylcarbamate], the IC50 was less than 6 µM.
Next, `COC(=O)NCC(NC(=O)C(C)Cc1nc(C)cs1)C(=O)NC(CC(C)C)C(O)CC(C)C(=O)NC(C(=O)NCC(C)C)C(C)C` (centres unmarked) [methyl 3-(5-hydroxy-8-(1-(isobutylamino)-3-methyl-1-oxobutan-2-ylamino)-2,7-dimethyl-8-oxooctan-4-ylamino)-2-(2-methyl-3-(4-methylthiazol-2-yl)propanamido)-3-oxopropylcarbamate]: less than 6 µM; `CCC(Cn1nc(C)cc1C)C(=O)NC(CNC(=O)OC(C)(C)C)C(=O)NC(CC(C)C)C(O)CC(C)C(=O)NC(C(=O)NCC(F)(F)F)C(C)C` (centres unmarked) [tert-butyl 2-(2-((3,5-dimethyl-1H-pyrazol-1-yl)methyl)butanamido)-3-(5-hydroxy-2,7-dimethyl-8-(3-methyl-1-oxo-1-(2,2,2-trifluoroethylamino)butan-2-ylamino)-8-oxooctan-4-ylamino)-3-oxopropylcarbamate]: 6 to 100 µM.
Next, `CCC(Cn1nc(C)cc1C)C(=O)NC(CNC(=O)OC(C)(C)C)C(=O)NC(CC(C)C)C(O)CC(C)C(=O)NC(C(=O)NCc1ccccn1)C(C)C` (centres unmarked) [tert-butyl 2-(2-((3,5-dimethyl-1H-pyrazol-1-yl)methyl)butanamido)-3-(5-hydroxy-2,7-dimethyl-8-(3-methyl-1-oxo-1-(pyridin-2-ylmethylamino)butan-2-ylamino)-8-oxooctan-4-ylamino)-3-oxopropylcarbamate]: 6 to 100 µM.
For `CCC(Cn1nc(C)cc1C)C(=O)NC(CNC(=O)OC(C)(C)C)C(=O)NC(CC(C)C)C(O)CC(C)C(=O)NC(C(=O)NCc1ccncc1)C(C)C` (centres unmarked) [tert-butyl 2-(2-((3,5-dimethyl-1H-pyrazol-1-yl)methyl)butanamido)-3-(5-hydroxy-2,7-dimethyl-8-(3-methyl-1-oxo-1-(pyridin-4-ylmethylamino)butan-2-ylamino)-8-oxooctan-4-ylamino)-3-oxopropylcarbamate] the value was less than 6 µM; for `CCC(Cn1nc(C)cc1C)C(=O)NC(CNC(=O)OC(C)(C)C)C(=O)NC(CC(C)C)C(O)CC(C)C(=O)NC(C(=O)NCC(C)C)C(C)C` (centres unmarked) [tert-butyl 2-(2-((3,5-dimethyl-1H-pyrazol-1-yl)methyl)butanamido)-3-(5-hydroxy-8-(1-(isobutylamino)-3-methyl-1-oxobutan-2-ylamino)-2,7-dimethyl-8-oxooctan-4-ylamino)-3-oxopropylcarbamate], less than 6 µM; for `Cc1cc(C)n(CC(N)C(=O)NC(CNC(=O)OC(C)(C)C)C(=O)NC(CC(C)C)C(O)CC(C)C(=O)NC(C(=O)NCC(C)C)C(C)C)n1` (centres unmarked) [tert-butyl 2-(2-amino-3-(3,5-dimethyl-1H-pyrazol-1-yl)propanamido)-3-(5-hydroxy-8-(1-(isobutylamino)-3-methyl-1-oxobutan-2-ylamino)-2,7-dimethyl-8-oxooctan-4-ylamino)-3-oxopropylcarbamate], more than 100 µM.
`Cc1cc(C)n(CC(N=[N+]=[N-])C(=O)NC(CNC(=O)OC(C)(C)C)C(=O)NC(CC(C)C)C(O)CC(C)C(=O)NC(C(=O)NCC(C)C)C(C)C)n1` (centres unmarked) [tert-butyl 2-(2-azido-3-(3,5-dimethyl-1H-pyrazol-1-yl)propanamido)-3-(5-hydroxy-8-(1-(isobutylamino)-3-methyl-1-oxobutan-2-ylamino)-2,7-dimethyl-8-oxooctan-4-ylamino)-3-oxopropylcarbamate] gave an IC50 of 6 to 100 µM.
For `Cc1nc(CC(C)C(=O)NC(CNC(=O)OC(C)(C)C)C(=O)NC(CC(C)C)C(O)CC(C)C(=O)NC(C(=O)NCC(C)C)C(C)C)c(C)o1` (centres unmarked) [tert-butyl 2-(3-(2,5-dimethyloxazol-4-yl)-2-methylpropanamido)-3-(5-hydroxy-8-(1-(isobutylamino)-3-methyl-1-oxobutan-2-ylamino)-2,7-dimethyl-8-oxooctan-4-ylamino)-3-oxopropylcarbamate] the value was less than 6 µM.
Next, `COC(Cn1nc(C)cc1C)C(=O)NC(CNC(=O)OC(C)(C)C)C(=O)NC(CC(C)C)C(O)CC(C)C(=O)NC(C(=O)NCC(C)C)C(C)C` (centres unmarked) [tert-butyl 2-(3-(3,5-dimethyl-1H-pyrazol-1-yl)-2-methoxypropanamido)-3-(5-hydroxy-8-(1-(isobutylamino)-3-methyl-1-oxobutan-2-ylamino)-2,7-dimethyl-8-oxooctan-4-ylamino)-3-oxopropylcarbamate]: more than 100 µM; `Cc1csc(CC(C)C(=O)NC(CNC(=O)OC(C)(C)C)C(=O)NC(Cc2cc(F)cc(F)c2)C(O)CC(C)C(=O)NC(C(=O)NCC(C)C)C(C)C)n1` (centres unmarked) [tert-butyl 3-(1-(3,5-difluorophenyl)-3-hydroxy-6-(1-(isobutylamino)-3-methyl-1-oxobutan-2-ylamino)-5-methyl-6-oxohexan-2-ylamino)-2-(2-methyl-3-(4-methylthiazol-2-yl)propanamido)-3-oxopropylcarbamate]: 6 to 100 µM; `Cc1csc(CC(C)C(=O)NC(CNC(=O)OC(C)(C)C)C(=O)NC(Cc2ccccc2)C(O)CC(C)C(=O)NC(C(=O)NCC(C)C)C(C)C)n1` (centres unmarked) [tert-butyl 3-(3-hydroxy-6-(1-(isobutylamino)-3-methyl-1-oxobutan-2-ylamino)-5-methyl-6-oxo-1-phenylhexan-2-ylamino)-2-(2-methyl-3-(4-methylthiazol-2-yl)propanamido)-3-oxopropylcarbamate]: 6 to 100 µM.
Next, `Cc1csc(CC(C)C(=O)NC(CNC(=O)OC(C)(C)C)C(=O)NC(CC(C)C)C(O)CC(C)C(=O)NC(C(=O)NCc2ccncc2)C(C)C)n1` (centres unmarked) [tert-butyl 3-(5-hydroxy-2,7-dimethyl-8-(3-methyl-1-oxo-1-(pyridin-4-ylmethylamino)butan-2-ylamino)-8-oxooctan-4-ylamino)-2-(2-methyl-3-(4-methylthiazol-2-yl)propanamido)-3-oxopropylcarbamate]: less than 6 µM; `CCC(CC(O)C(CC(C)C)NC(=O)C(CNC(=O)OC(C)(C)C)NC(=O)C(C)Cc1nc(C)cs1)C(=O)NC(C(=O)NCC(C)C)C(C)C` (centres unmarked) [tert-butyl 3-(5-hydroxy-7-(1-(isobutylamino)-3-methyl-1-oxobutan-2-ylcarbamoyl)-2-methylnonan-4-ylamino)-2-(2-methyl-3-(4-methylthiazol-2-yl)propanamido)-3-oxopropylcarbamate]: less than 6 µM.
Regarding `CCC(Cc1nc(C)cs1)C(=O)NC(CNC(=O)OC(C)(C)C)C(=O)NC(CC(C)C)C(O)CC(C)C(=O)NC(C(=O)NCC(C)C)C(C)C` (centres unmarked) [tert-butyl 3-(5-hydroxy-8-(1-(isobutylamino)-3-methyl-1-oxobutan-2-ylamino)-2,7-dimethyl-8-oxooctan-4-ylamino)-2-(2-((4-methylthiazol-2-yl)methyl)butanamido)-3-oxopropylcarbamate], the IC50 is less than 6 µM.
In the case of `Cc1csc(CC(C)C(=O)NC(CNC(=O)OC(C)(C)C)C(=O)NC(CC(C)C)C(O)CC(C)C(=O)NC(C(=O)NCC(C)C)C(C)C)n1` (centres unmarked) [tert-butyl 3-(5-hydroxy-8-(1-(isobutylamino)-3-methyl-1-oxobutan-2-ylamino)-2,7-dimethyl-8-oxooctan-4-ylamino)-2-(2-methyl-3-(4-methylthiazol-2-yl)propanamido)-3-oxopropylcarbamate], the IC50 was less than 6 µM.
The compound `Cc1csc(CC(C)C(=O)NC(CNC(=O)OC(C)(C)C)C(=O)NC(CC(C)C)C(O)CC(C)C(=O)NC(C(=O)NN(C)C)C(C)C)n1` (centres unmarked) [tert-butyl 3-(8-(1-(2,2-dimethylhydrazinyl)-3-methyl-1-oxobutan-2-ylamino)-5-hydroxy-2,7-dimethyl-8-oxooctan-4-ylamino)-2-(2-methyl-3-(4-methylthiazol-2-yl)propanamido)-3-oxopropylcarbamate] yielded an IC50 of less than 6 µM.
Next, `Cc1cc(C)n(CC(C)C(=O)NC(CNC(=O)OC2CCOC2)C(=O)NC(CC(C)C)C(O)CC(C)C(=O)NC(C(=O)NCC(C)C)C(C)C)n1` (centres unmarked) [tetrahydrofuran-3-yl 2-(3-(3,5-dimethyl-1H-pyrazol-1-yl)-2-methylpropanamido)-3-(5-hydroxy-8-(1-(isobutylamino)-3-methyl-1-oxobutan-2-ylamino)-2,7-dimethyl-8-oxooctan-4-ylamino)-3-oxopropylcarbamate]: 6 to 100 µM; `Cc1csc(CC(C)C(=O)NC(CNC(=O)OC2CCOC2)C(=O)NC(CC(C)C)C(O)CC(C)C(=O)NC(C(=O)NCC(C)C)C(C)C)n1` (centres unmarked) [tetrahydrofuran-3-yl 3-(5-hydroxy-8-(1-(isobutylamino)-3-methyl-1-oxobutan-2-ylamino)-2,7-dimethyl-8-oxooctan-4-ylamino)-2-(2-methyl-3-(4-methylthiazol-2-yl)propanamido)-3-oxopropylcarbamate]: less than 6 µM.
